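Five concentrations, 48 hours, 96-well plates. GI50: concentration for 50% inhibition of growth. TGI is the concentration that stops growth completely.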
Tests used:
Experiment in all cases: inhibition of tumour cell growth, NCI panel, 48 h
[1] = system: PC-3 prostate
[2] = system: UACC-62 melanoma
[3] = system: OVCAR-3 ovarian
[4] = system: T-47D breast
[5] = system: NCI-H460 lung
[6] = system: NCI-H522 lung
[7] = system: SK-MEL-5 melanoma
[8] = system: EKVX NSCLC
[9] = system: HT29 colon
[10] = system: COLO 205 colon
[11] = system: CAKI-1 renal
[12] = system: A498 renal
[13] = system: HOP-92 NSCLC
[14] = system: HCT-15 colon
[15] = system: IGROV1 ovarian
[16] = system: SN12C renal
[17] = system: U251 CNS
[18] = system: HS 578T breast
[19] = system: SF-295 CNS
[20] = system: BT-549 breast
[21] = system: NCI-H226 lung
[22] = system: DU-145 prostate
[23] = system: HL-60(TB) leukemia
[24] = system: LOX IMVI melanoma
[25] = system: MDA-MB-231 breast
[26] = system: SNB-75 CNS
[27] = system: SK-MEL-28 melanoma
[28] = system: SK-OV-3 ovarian
[29] = system: SK-MEL-2 melanoma
[30] = system: RXF 393 renal
[31] = system: OVCAR-8 ovarian
[32] = system: HOP-62 NSCLC
[33] = system: 786-0 renal
[34] = system: MALME-3M melanoma
[35] = system: HCT-116 colon
[36] = system: NCI/ADR-RES ovarian
[37] = system: TK-10 renal
[38] = system: ACHN renal
[39] = system: NCI-H23 lung
[40] = system: SW-620 colon
[41] = system: SF-539 CNS
[42] = system: SF-268 CNS
[43] = system: M14 melanoma
[44] = system: CCRF-CEM leukemia
[45] = system: RPMI-8226 leukemia
[46] = system: MDA-MB-435
[47] = system: OVCAR-4 ovarian
[48] = system: SNB-19 CNS
[49] = system: UACC-257 melanoma
[50] = system: KM12 colon
[51] = system: UO-31 renal
[52] = system: MCF7 breast
[53] = system: HCC-2998 colon
[54] = system: OVCAR-5 ovarian
[55] = system: A549 NSCLC

O=C(CC1(O)C(=O)N(Cc2ccccc2)c2ccc(F)cc21)c1ccc(C(=O)NCC2CCC3(CC2)OOC2(CCCCC2)OO3)cc1 (stereo not given)
GI50 [1]: 990 nM | TGI [1]: 3210 nM | GI50 [2]: 2180 nM | TGI [2]: 5610 nM | GI50 [3]: 254 nM | TGI [3]: 634 nM | GI50 [4]: 843 nM | TGI [4]: 3110 nM | GI50 [5]: 210 nM | TGI [5]: 487 nM | GI50 [6]: 187 nM | TGI [6]: 396 nM | GI50 [7]: 1540 nM | TGI [7]: 2960 nM | GI50 [8]: 412 nM | TGI [8]: 1250 nM | GI50 [9]: 362 nM | TGI [9]: 1280 nM | GI50 [10]: 728 nM | TGI [10]: 2020 nM | GI50 [11]: 464 nM | TGI [11]: 954 nM | GI50 [12]: 1690 nM | TGI [12]: 3880 nM | GI50 [13]: 186 nM | TGI [13]: 378 nM | GI50 [14]: 867 nM | TGI [14]: 3200 nM | GI50 [15]: 236 nM | TGI [15]: 620 nM | GI50 [16]: 1730 nM | TGI [16]: 3740 nM | GI50 [17]: 251 nM | TGI [17]: 674 nM | GI50 [18]: 1920 nM | TGI [18]: 6080 nM | GI50 [19]: 654 nM | TGI [19]: 1690 nM | GI50 [20]: 1880 nM | TGI [20]: 4280 nM | GI50 [21]: 1100 nM | TGI [21]: 4190 nM | GI50 [22]: 187 nM | TGI [22]: 335 nM | GI50 [23]: 349 nM | TGI [23]: 999 nM | GI50 [24]: 77.1 nM | TGI [24]: 222 nM | GI50 [25]: 423 nM | TGI [25]: 1680 nM | GI50 [26]: 1480 nM | TGI [26]: 3190 nM | GI50 [27]: 4380 nM | TGI [27]: > 84700 nM | GI50 [28]: 2900 nM | TGI [28]: > 24000 nM | GI50 [29]: 2000 nM | TGI [29]: 4130 nM | GI50 [30]: 317 nM | TGI [30]: 851 nM | GI50 [31]: 267 nM | TGI [31]: 723 nM | GI50 [32]: 179 nM | TGI [32]: 382 nM | GI50 [33]: 180 nM | TGI [33]: 344 nM | GI50 [34]: 226 nM | TGI [34]: 540 nM | GI50 [35]: 1360 nM | TGI [35]: 3290 nM | GI50 [36]: 373 nM | TGI [36]: 1140 nM | GI50 [37]: 191 nM | TGI [37]: 413 nM | GI50 [38]: 179 nM | TGI [38]: 363 nM | GI50 [39]: 246 nM | TGI [39]: 634 nM | GI50 [40]: 1840 nM | TGI [40]: 4300 nM | GI50 [41]: 210 nM | TGI [41]: 541 nM | GI50 [42]: 1310 nM | TGI [42]: 3220 nM | GI50 [43]: 2020 nM | TGI [43]: 6630 nM | GI50 [44]: 274 nM | TGI [44]: 924 nM | GI50 [45]: 365 nM | TGI [45]: 1920 nM | GI50 [46]: 468 nM | TGI [46]: 1420 nM | GI50 [47]: 1810 nM | TGI [47]: 4620 nM | GI50 [48]: 3440 nM | TGI [48]: 43500 nM | GI50 [49]: 4780 nM | TGI [49]: 31700 nM | GI50 [50]: 338 nM | TGI [50]: 1190 nM | GI50 [51]: 180 nM | TGI [51]: 352 nM | GI50 [52]: 1920 nM | TGI [52]: > 31900 nM | GI50 [53]: 1840 nM | TGI [53]: 3920 nM | GI50 [54]: 1170 nM | TGI [54]: 4890 nM | GI50 [55]: 207 nM | TGI [55]: 441 nM

Reference: PubChem BioAssay (NCI)
